Test results published in patent EP3298025B1, “NEW AMINO ACID SEQUENCES WITH MI[…] DERIVED FROM NAJA ATRA CARDIOTOXIN 1 (CTX-1)” (Università degli Studi di Parma, priority 2015, dated 2016).
Several values for one entry are separate records, joined by “and”; a condition that tells them apart may be missing. Equal entries are not always repeated. Residues, ends and D or L forms follow the SMILES beside them.

What was measured:
MRSA ATCC 43300 = assay: antimicrobial activity in presence of NaCl; assay type: cell-based, Staphylococcus aureus
Description: (§1) Peptides were tested in the ability to inhibit bacterial growth in liquid medium. 50 µl of peptides at a concentration […] E. coli ATCC 25922, Pseudomonas aeruginosa ATCC 27853 and Staphylococcus aureus methicillin resistant ATCC 43300. After 2 hours incubation at 37°C, bacteria were plated on solid culture medium. Bacterial cultures were cultivated without peptides as growth control.
(§2) The bacterial suspension and peptides at differing concentrations were put in contact for about 2 hours at 37°C. After this incubation, 20 µl from every well of the plate were transplanted on solid culture medium, McConkey agar for Gram-negative and Columbia agar with 5% of bovine erythrocytes for Gram-positive bacteria. The inoculum was evenly distributed on the agar medium using a single use sterile handle. After an incubation time of 24 hours at 37°C, the bacterial colonies (cfu) were counted.

[1] = tested on: Pseudomonas aeruginosa ATCC 27853; assay: antimicrobial activity in presence of NaCl; assay type: cell-based
Description: as §1, §2

E. coli ML-35pYC = assay: membrane permeabilization assay (CENTA outer membrane, ONPG inner membrane); assay type: cell-based; conditions: peptide 12.5 µg/ml; absorbance every 10 minutes for 240 minutes
Description: Methods: to test the bacterial membrane permeabilization caused by the peptides of the invention, E. coli ML-35pYC strain was used. This bacterial strain express ampicillin resistence, a constitutive expression of cytoplasmic β-galactosidase and is engineered with a plasmid for a periplasmic β-lactamase synthesis. Sixty microliters (60 µl) of bacterial suspension, containing E. coli ML-35pYC strain, were added to 60 µl of ONPG solution (15 mM) or to 60 µl of CENTA (1,5 mM) diluted in phosphate buffer. Subsequently 120 µl of the examined peptide were added, to obtain a final concentration of 12.5 µg/ml (NCP-2=5,4 µM, NCP-3=5.2 µM). The absorbance value was registered at […] for ONPG and at 405 nm for CENTA, every 10 minutes for 240 minutes to assess the reaction's kinetics.

MRSA ATCC 43400 = assay: micro-dilution in liquid medium and transplant on solid medium, Gram-positive bacteria; assay type: cell-based, Staphylococcus aureus; conditions: 2 hours at 37°C, transplant on agar
Description: For each bacterial strain 3-5 morphologically similar colonies from fresh cultures were taken and inoculated in Brain Heart Infusion broth, then incubated at 37°C in agitation at 225 r.p.m. for about 3-4 hours. Then the bacterial suspension was centrifuged at 1000 G for 20 minutes and the pellet resuspended in phosphate buffer pH 7, 10 mM. The turbidity of the bacterial suspension was measured using a spectrophotometer with absorbance of 600 nm; the range 0,08-0,13 equates to about 10^8 cfu/ml. The bacterial suspension was diluted 1:100 in phosphate buffer 10mM to obtain a bacterial concentration of about 10^6 cfu/ml. Within 30 minutes 50 µl of the suspension 10^6 cfu/ml were inoculated in each well of the microtiter plate, to obtain a bacterial concentration of about 5x10^5 cfu/ml.
The peptides ability to inhibit the bacterial growth in liquid cultures was tested. 50 µl of each peptides solutions of about 0.2-50 µM were added in microtiter plates with 96 wells with liquid culture medium and one of these bacterial strains: Staphylococcus aureus ATCC 25923, MRSA ATCC 43300, Streptococcus agalactiae ATCC 13813 and Enterococcus hirae ATCC 10541. […]
The bacterial suspension and differing peptides concentrations were put in contact for about 2 hours at 37°C. […] After an incubation time of 24 hours at 37°C, the bacterial colonies (cfu) were counted.

E. coli ATCC 25922 = assay: antimicrobial activity in presence of NaCl; assay type: cell-based
Description: as §1, with “concentration between 0.2 µM and 50 µM were” for “concentration”
as §2

tested fungal strains = assay: micro-dilution and transplant on solid medium, summary over yeast panel; assay type: cell-based; conditions: over Candida albicans ATCC 10231, Candida glabrata ATCC 2001 and Malassetia pachydermatis ATCC 14522
Description: Candida albicans ATCC 10231, Candida glabrata ATCC 2001 and Malassetia pachydermatis ATCC 14522 were cultivated in Czapek-Dox broth (DIFCO) medium for 48-72 hours. On the day of the test the fungal culture was centrifuged at 1700G for 15 minutes and the pellet resuspended in phosphate buffer, then put in agitation on an electric vortex to disrupt fungal cell aggregations. The suspension was diluted to get a final optical density of 0,5 of the McFarland scale (about 1-5x10^6 cell/ml) (Branda J.A., Krantz A. Effect of yeast on automated cell counting. Am J Clin Pathol., 2006:126, 248-254.).
Peptides ability to inhibit the fungal growth in liquid cultures was tested. 50 µl of each peptides solutions of about 0.2-50 µM were added in microtiter plates with 96 wells with U-shaped bottom, with liquid culture medium and one of these fungi: Candida albicans ATCC 10231, Candida glabrata ATCC 2001 and Malassetia pachydermatis ATCC 14522. After 2 hours of incubation at 37°C, fungal suspensions were plated on solid culture medium, agar Sabouraud. Fungal cultures were cultivated without peptides as growth control.
the fungal suspension and peptides at differing concentrations were in contact for about 2 hours at 37°C. […] After an incubation time of 24 hours at 37°C, the fungal colonies (cfu) were counted.

[2] = 125 mM NaCl, peptide 12.5 µg/ml
[3] = 250 mM NaCl, peptide 12.5 µg/ml

## CC[C@H](C)[C@H](NC(=O)[C@H](CCCCN)NC(=O)[C@H](Cc1ccc(O)cc1)NC(=O)[C@H](CS)NC(=O)[C@H](CC(C)C)NC(=O)[C@H](CC(N)=O)NC(=O)[C@H](CCCCN)NC(=O)CNC(=O)[C@H](C)NC(=O)[C@@H]1CCCN1C(=O)[C@H](CS)NC(=O)[C@@H](NC(=O)[C@H](CCCCN)NC(=O)[C@H](CO)NC(=O)[C@H](C)NC(=O)[C@@H](NC(=O)[C@@H]1CCCN1C(=O)[C@@H](NC(=O)[C@H](CC(C)C)NC(=O)[C@@H](N)CCCCN)[C@@H](C)CC)[C@@H](C)CC)[C@@H](C)O)C(=O)O [NCP-0, K LIPIA SKT CPA GKN LCY KI] (H-KLIPIASKTCPAGKNLCYKI-OH; N-terminus and C-terminus assumed)
MRSA ATCC 43300; 10 mM NaCl, peptide 12.5 µg/ml
  Antimicrobial activity (% to control): 0%
MRSA ATCC 43300; 10 mM NaCl, peptide 100 µg/ml
  Antimicrobial activity (% to control): 2%
MRSA ATCC 43300; [2]
  Antimicrobial activity (% to control): 0%
MRSA ATCC 43300; 125 mM NaCl, peptide 100 µg/ml
  Antimicrobial activity (% to control): 0%
MRSA ATCC 43300; [3]
  Antimicrobial activity (% to control): 0%
MRSA ATCC 43300; 250 mM NaCl, peptide 100 µg/ml
  Antimicrobial activity (% to control): 0%
[1]; 10 mM NaCl, peptide 12.5 µg/ml
  Antimicrobial activity (% to control): 0%
[1]; 10 mM NaCl, peptide 100 µg/ml
  Antimicrobial activity (% to control): 2%
[1]; [2]
  Antimicrobial activity (% to control): 0%
[1]; 125 mM NaCl, peptide 100 µg/ml
  Antimicrobial activity (% to control): 0%
[1]; [3]
  Antimicrobial activity (% to control): 0%
[1]; 250 mM NaCl, peptide 100 µg/ml
  Antimicrobial activity (% to control): 0%
E. coli ML-35pYC
  damage to the inner membrane (ONPG): had not demonstrated activity on outer or inner membrane
  damage to the outer membrane (CENTA): had not demonstrated activity on outer or inner membrane
MRSA ATCC 43400
  LD90: > 100 µg/ml and > 46.3 µM
  LD99: > 200 µg/ml and > 92.6 µM
E. coli ATCC 25922; 10 mM NaCl, peptide 12.5 µg/ml
  Antimicrobial activity (% to control): 0%
E. coli ATCC 25922; 10 mM NaCl, peptide 100 µg/ml
  Antimicrobial activity (% to control): 3%
E. coli ATCC 25922; [2]
  Antimicrobial activity (% to control): 0%
E. coli ATCC 25922; 125 mM NaCl, peptide 100 µg/ml
  Antimicrobial activity (% to control): 0%
E. coli ATCC 25922; [3]
  Antimicrobial activity (% to control): 0%
E. coli ATCC 25922; 250 mM NaCl, peptide 100 µg/ml
  Antimicrobial activity (% to control): 0%
Tested fungal strains
  LD99: > 150 µg/ml and > 69.2 µM
